Experimental data as given in patent US7338940B2, “Cancer treatment including glycolytic inhibitors” (priority 2000, dated 2008).
In brackets after ≈: the same amount, converted by molar mass.

What was measured:
[1] = test system: osteosarcoma cell line (143B; Wild type); test: Growth inhibition studies in wild type 143B osteosarcoma cells; type: cell-based; settings: for IC50: Homo sapiens, read-out: 50% Growth Inhibition Dose; for IC50 / 50% Growth Inhibition Dose: Wild type (143B) cells
[2] = test system: ρ^o cells (cell line 206); test: Growth inhibition studies in ρ° cells devoid of mitochondrial DNA; type: cell-based; settings: for IC50 / 50% Growth Inhibition Dose: ρ° cells; for IC50: read-out: 50% Growth Inhibition Dose; for Ratio of 50% growth inhibition dose, ρ° to wild type (times more resistant): ρ° vs wild type 143B cells; for Relative toxicity/sensitivity in ρ^o vs wt cells (in words): cell model (B)
Text: When an osteosarcoma cell line (143B; Wild type in Table 1 below) was exposed for prolonged periods to ethidium bromide a mutant completely devoid of mitochondrial DNA ρ^o was isolated. […] These processes are necessary for transmembrane proton pumping which creates an electronegative membrane potential (Δψmt) in the matrix side of the inner mitochondrial membrane. Since Rho 123 is a fluorescent dye, which due to its chemical positive charge accumulates in mitochondria, it is commonly used as an indicator of Δψmt.

[3] = test system: human breast carcinoma cells, MCF-7; test: Colony forming units after co-treatment with Rho 123 and 2-dg; type: cell-based
Text: 218:1117-1119, 1982; Lampidis, T J, Bernal, S D, Summerhayes, I C, and Chen, L B. “Selective toxicity of Rhodamine 123 in carcinoma cells in vitro.” Cancer Res. 43:716-720, 1983; and Bernal, S B, Lampidis, T J, Mclsaac, B, and Chen, L B. “Anticarcinoma activity in vivo of Rhodamine 123, a mitochondrial-specific dye.” Science.

[4] = test system: implanted tumors; test: In vivo treatment of animals with implanted tumors; settings: for Tumor response: animals with implanted tumors
Text: This latter result provides evidence that manipulation of Oxphos and glycolysis simultaneously can cure tumors in animals. […] In this regard, several reports have shown that low levels of 2-dg can be safely administered to animals for various reasons including hypersensitization of tumors to irradiation.

[5] = test system: 143b cells; test: Lactate production in living cells (screen for inhibitors of oxidative phosphorylation); type: cell-based; settings: for Change in lactate production (in words): increasing doses
Text: Lactate (more commonly known as lactic acid) is an end product of glycolysis that is activated when a cell cannot use oxygen as its final electron acceptor. This occurs when cells are metabolizing anaerobically. Thus, under these conditions, pyruvate, which is the last end product of glycolysis during aerobic metabolism, is further metabolized to lactate. […] This discovery created a need for a screening method to identify agents which inhibit oxidative phosphorylation and thereby render a cell hypersensitive to glycolytic inhibitors. Consequently, we have developed a rapid and an inexpensive way to detect such agents by measuring increases in the production of lactate in living cells.
Such methodology provides a practical means for testing and or screening extensive libraries of structurally diverse compounds to identify inhibitors of oxidative phosphorylation as well as for obtaining new leads to design novel inhibitors of this fundamental cellular process.

[6] = test system: tumor cells (143B or MCF-7); test: Hypersensitization of tumor cells to glycolytic inhibitors (cell model (A)); type: cell-based; settings: intact tumor cells
[7] = test system: wild type 143B (wt) and ρ^o cells (cell line 206); test: Flow cytometric analysis of Rho 123 accumulation/retention; type: cell-based; settings: non-P-gp cell lines (143B wt and ρ^o)
Experimental: Flow cytometric analysis was performed in order to quantitate the differences observed microscopically between wild type 143B (wt) and ρ^o cells (designated as cell line 206) in their accumulation of Rho 123.
To ensure that our accumulation results were not complicated by P-gp-mediated MDR, since Rho 123 is a known substrate for this transporter, both cell types were examined for this gene by RT-PCR and were found not to express it.

O=CC[C@@H](O)[C@H](O)[C@H](O)CO [2-deoxy-glucose, 2-deoxy-D-glucose]
IC50 [1]: 1000 µg/mL (≈ 6090 µM)
ID50 ([1]; wt cells): 1000 µg/mL (≈ 6090 µM)
ID50 ([2]; ρ^o cells): 50 µg/mL (≈ 305 µM)
IC50 [2]: 50 µg/mL (≈ 305 µM)
Ratio of 50% growth inhibition dose, ρ° to wild type (times more resistant) [2]: 0.05
Toxicity at the dose used for co-treatment ([3]; MCF-7, drug alone): no toxicity
Tumor response [4]: only partial or no responses
Safety of administration to animals ([4]; doses effective for anti-tumor activity in combination with an Oxphos inhibitor): can be administered safely

COc1cccc2c1C(=O)c1c(O)c3c(c(O)c1C2=O)C[C@@](O)(C(=O)CO)C[C@@H]3O[C@H]1C[C@H](N)[C@H](O)[C@H](C)O1 [Doxorubicin]
IC50 [1]: 0.01 µg/mL (≈ 0.0184 µM)
Relative toxicity/sensitivity in ρ^o vs wt cells (in words) [2]: equitoxic
IC50 [2]: 0.01 µg/mL (≈ 0.0184 µM)
Ratio of 50% growth inhibition dose, ρ° to wild type (times more resistant) [2]: 1
LACTATE ([5]; dose 0.005 μg/ml): 5.1 +/− 0.4 μg/μg protein
LACTATE ([5]; dose 0.01 μg/ml): 5.5 +/− 0.7 μg/μg protein
Change in lactate production (in words) [5]: little or no significant changes
Hypersensitization of tumor cells to glycolytic inhibitors [6]: do not hypersensitize

CC(=O)O[C@H]1C(=O)[C@@]2(C)[C@H]([C@H](OC(=O)c3ccccc3)[C@]3(O)C[C@H](OC(=O)[C@H](O)[C@@H](NC(=O)c4ccccc4)c4ccccc4)C(C)=C1C3(C)C)[C@]1(OC(C)=O)CO[C@@H]1C[C@@H]2O [Paclitaxel]
IC50 [1]: 0.05 µg/mL (≈ 0.0586 µM)
Relative toxicity/sensitivity in ρ^o vs wt cells (in words) [2]: equitoxic
IC50 [2]: 0.05 µg/mL (≈ 0.0586 µM)
Ratio of 50% growth inhibition dose, ρ° to wild type (times more resistant) [2]: 1
LACTATE ([5]; dose 0.0005 μg/ml): 5.6 +/− 0.7 μg/μg protein
LACTATE ([5]; dose 0.001 μg/ml): 6.1 +/− 0.7 μg/μg protein
LACTATE ([5]; dose 0.002 μg/ml): 6.6 +/− 0.3 μg/μg protein
Change in lactate production (in words) [5]: little or no significant changes
Hypersensitization of tumor cells to glycolytic inhibitors [6]: do not hypersensitize

Cc1cc2nc3cc(C)c(N)cc3[n+](-c3ccccc3)c2cc1N.[Cl-] [Saffranin O]
50% Growth Inhibition Dose [1]: 0.35 µg/mL
50% Growth Inhibition Dose [2]: 2 µg/mL
Ratio of 50% growth inhibition dose, ρ° to wild type (times more resistant) [2]: 6

CC[C@]1(O)C[C@@H]2CN(CCc3c([nH]c4ccccc34)[C@@](C(=O)OC)(c3cc4c(cc3OC)N(C)[C@H]3[C@@](O)(C(=O)OC)[C@H](OC(C)=O)[C@]5(CC)C=CCN6CC[C@]43[C@@H]65)C2)C1 [Vinblastine]
IC50 [1]: 0.00075 µg/mL (≈ 0.000925 µM)
Relative toxicity/sensitivity in ρ^o vs wt cells (in words) [2]: equitoxic
IC50 [2]: 0.00075 µg/mL (≈ 0.000925 µM)
Ratio of 50% growth inhibition dose, ρ° to wild type (times more resistant) [2]: 1
LACTATE ([5]; dose 0.0005 μg/ml): 5.6 +/− 0.6 μg/μg protein
LACTATE ([5]; dose 0.001 μg/ml): 6.3 +/− 0.9 μg/μg protein
LACTATE ([5]; dose 0.002 μg/ml): 5.8 +/− 0.3 μg/μg protein
Change in lactate production (in words) [5]: little or no significant changes
Hypersensitization of tumor cells to glycolytic inhibitors [6]: do not hypersensitize

COc1ccc(CCN(C)CCCC(C#N)(c2ccc(OC)c(OC)c2)C(C)C)cc1OC (stereo not drawn) [verapamil]
Effect on retention of Rho 123 [7]: increases the retention of Rho 123

Rhodamine 123
50% Growth Inhibition Dose [1]: 1.0 µg/mL
50% Growth Inhibition Dose [2]: 50 µg/mL
Ratio of 50% growth inhibition dose, ρ° to wild type (times more resistant) [2]: 50
LACTATE ([5]; dose 0.25 μg/ml): 9.3 +/− 0.4 μg/μg protein
LACTATE ([5]; dose 0.50 μg/ml): 13.2 +/− 0.2 μg/μg protein
LACTATE ([5]; dose 1.0 μg/ml): 14.6 +/− 2.3 μg/μg protein
Change in lactate production (in words) [5]: lactate is accordingly increased
Colony forming units inhibited ([3]; MCF-7, Rho 123 at its 50% dose, 2-dg at a non-toxic dose): 50%
Tumor response [4]: only partial or no responses
Hypersensitization of tumor cells to glycolytic inhibitors [6]: hypersensitize
